Source: patent US10881718B2, “Bifunctional conjugate compositions and associated methods” (priority 2010, dated 2021)
Non-standard residues stand in square brackets, D forms with d. No end group written: not given here. Ahx = NCCCCCC(=O)O

Key:
IL-17 = test: Plasma cytokine analysis (ELISA) in EAE mice: IL-17; assay type: in vivo, SJL/J mice
Procedure: (§2) Blood samples were taken from each mouse via mandibular bleeds (˜100 uL) on days 0, 6, 12, 18, 25. To ensure there was enough sample to perform ELISA cytokine testing blood from, two mice within the same group was pooled at each time point for a total of four samples per group. Samples were collected in heparin-containing tubes and centrifuged to separate red blood cells. Plasma was collected and sent for cytokine analysis to the Cytokine Core Laboratory at the University of Maryland. The cytokines analyzed were IL-2, IL-4, IL-10, IL-17, TNF-α, and TGF-β.

IFN-γ = test: Plasma cytokine analysis (ELISA) in EAE mice: IFN-γ; assay type: in vivo, SJL/J mice
Procedure: as §2

[1] = system: EAE model induced in SJL/J mice; test: Suppression of EAE by SAgAs and NP-Arrays (Example 1); assay type: in vivo; conditions: PLP conc. 100 nMol (100* for LABL-only arrays); s.c. days 4, 7, 10
Procedure: (§1) Induction of EAE and Therapeutic Study.
SJL/J (H-2s) female mice, 4-6 weeks old, were purchased from The Jackson Laboratory and housed under specified, pathogen-free conditions at The University of Kansas. All protocols involving live mice were approved by the Institutional Animal Care and Use Committee. Mice were immunized subcutaneously (s.c) with […] of PLP139-151 in a 0.2 mL emulsion composed of equal volumes of phosphate-buffered saline (PBS) and complete Freund's adjuvant (CFA) containing killed Mycobacterium tuberculosis strain H37RA (final concentration of 4 mg/mL; Difco). The PLP139-151/CFA was administered to regions above the shoulders and the flanks (total of four sites; 50 μL at each injection site). In addition, 200 ng/100 μL of pertussis toxin (List Biological Laboratories Inc.) was injected intraperitoneally (i.p.) on the day of immunization (day 0) and 2 days post-immunization. The mice received s.c. injections of each sample, equivalent to 100 nMol PLP/100 μL, on days 4, 7, 10. All NP samples were sonicated to disperse NPs before injection. For HA samples and controls, 100 μL of each vehicle was injected. […] Body weight was also measured daily.
Statistical differences were determined by comparing treated groups to the negative control (PBS) for clinical disease score and body weight. […]
The SAgAs and NP-Arrays were evaluated in an EAE model induced in SJL/J mice. […]

TNF-α = test: Plasma cytokine analysis (ELISA) in EAE mice: TNF-α; assay type: in vivo, SJL/J mice; conditions: day 6; PBS 1.8 pg/mL
Procedure: as §2

[2] = system: EAE model induced in SJL/J mice; test: Suppression of EAE by SAgAs: cell adhesion target and size (Example 2); assay type: in vivo; conditions: PLP conc. 100 nMol as printed in Table 11
Procedure: as §1
Four-6 week-old SJL/J female mice were immunized subcutaneously (s.c) with […] of PLP139-151 in a 0.2 mL emulsion composed of equal volumes of complete Freund's adjuvant (CFA) containing killed Mycobacterium tuberculosis strain H37RA (final concentration of 4 mg/mL; Difco) and phosphate-buffered saline (PBS) containing PLP. The PLP139-151/CFA emulsion was administered to regions above the shoulders and the flanks (total of four sites; 50 μL at each injection site). Additionally, 200 ng/100 μL of pertussis toxin (List Biological Laboratories Inc.) was injected intraperitoneally (i.p.) on the day of immunization (day 0) and 2 days post-immunization. […] One hundred μL of each vehicle was injected for all samples and controls. […] Body weight was also measured daily.
Statistical differences were determined by comparing treated groups to the negative control (PBS) for clinical disease score and body weight. […] For individual clinical day scores and cytokine measurements T test was employed. All analyses were performed using GraphPad Software (GraphPad Software Inc.).
Efficacy of SAgAs was evaluated in the EAE model induced in SJL/J mice. The study design is outlined in Table 11 below. Typically disease onset occurs at approximately day 8 and progresses to remission around day 20. […]

[3] = design: species or system mice; conditions: mouse, in vivo, sc
Procedure: In Vivo Imaging. In vivo imaging was completed using the Maestro Imaging Suite. Animals were anesthetized using an isoflurane vaporizer and IR-820 labeled SAgA was injected s.c. at the base of the neck. After injection images were taken of the animal's top, left, bottom, and right side by rotating the animal in the exposure pane. The animal was imaged at defined time points over a 24 hour period to track the drainage and clearance of the SAgA from the injection site.

HSLGKWLGHPDKF-AcGAcGAc-ITDGEATDSG (HSLGKWLGHPDKF[Ahx]G[Ahx]G[Ahx]ITDGEATDSG) [PLP-BPI]
plasma IL-17 concentration (IL-17; day 6, PBS 23 pg/mL): 40 pg/mL | plasma IL-17 concentration (IL-17; day 12): 31 pg/mL | reduction in peak expression of IFN-γ compared to PBS controls (IFN-γ; Day 6): ~40% | average plasma concentration of IFN-γ (IFN-γ; day 6, PBS 72 pg/mL): 31 pg/mL | Clinical Data Significance compared to PBS: % Weight loss [1]: Days 12-16, 18-22, p < 0.01 | Clinical Data Significance compared to PBS: Score [1]: Day 12, p < 0.001 | plasma TNF-α peak concentration (TNF-α): 3.1 pg/mL | Clinical Significance vs PBS: % Weight loss [2]: p < 0.05, Days 16 | Clinical Significance vs PBS: Score ([2]; s.c. days 4, 7, 10): p < 0.05, Days 14 & 17

Hyaluronic acid [70 kDa HA]
time of drainage/clearance of IR820-labeled material from the injection site [3]: 500 min

Hyaluronic acid [HA]
time of drainage/clearance of IR820-labeled material from the injection site [3]: ≤ 1440 min
